Data from patent US11377441B2, “Covalent inhibitors of KRAS” (Araxes Pharma LLC, priority 2017, dated 2022).

Biological target: T1, KRAS G12C 1-169, his-tagged protein, GDP-loaded (Homo sapiens, UniProt P01116, G12C)
T1 construct: KRAS G12C 1-169, his-tagged protein, GDP-loaded
Assay: Biochemical assay: covalent modification of KRAS G12C measured by mass spectrometry (RapidFire/TOF or Q-Exactive)
Type: binding
Conditions: covalent binding to (modification of) KRAS G12C after a ten minute incubation period
Protocol: Test compounds were prepared as 10 mM stock solutions in DMSO (Fisher cat #BP-231-100). KRAS G12C 1-169, his-tagged protein, GDP-loaded is diluted to 2 μM or 0.5 μM in buffer (20 mM Hepes, 150 mM NaCl, 1 mM MgCl2). Compounds were tested for activity as follows:
Compounds were diluted to 50× final test concentration in DMSO in 96-well storage plates. Compound stock solutions were vortexed before use and observed carefully for any sign of precipitation. Dilutions are as follow: • For 100 μM final compound concentration, compounds were diluted to 5000 μM (5 μL 10 mM compound stock+5 μL DMSO and mixed well by pipetting. • For 30 μM final compound concentration, compounds were diluted to 1500 μM (3 μL 10 mM compound stock+17 μL DMSO) and mixed well by pipetting. • For 10 μM final compound concentration, compounds were diluted to 500 μM (2 μL 10 mM compound stock+38 μL DMSO) and mixed well by pipetting. 49 μL of the stock protein solution was added to each well of a 96-well PCR plate (Fisher cat #1423027). 1 μL of the diluted 50× compounds were added to appropriate wells in the PCR plate using 12-channel pipettor. Reactions were mixed carefully and thoroughly by pipetting up/down with a 200 μL multi-channel pipettor. The plate was sealed well with aluminum plate seal, and stored in drawer at room temperature for 10 minutes, 30 minutes, 2 hours or 24 hours. 5 μL of 2% formic acid (Fisher cat #A117) in de-ionized H2O was then added to each well followed by mixing with a pipette. The plate was then resealed with aluminum seal and stored on dry ice until analyzed as described below.
The above described assays were analyzed by mass spectrometry according to one of the following two procedures:
The MS instrument was set to positive polarity, 2 GHz resolution, and low mass (1700) mode and allowed to equilibrate for 30 minutes. The instrument was then calibrated, switched to acquisition mode and the appropriate method loaded.
After another 30 minute equilibration time, a blank batch (i.e., buffer) was run to ensure equipment is operating properly. The samples were thawed at 37° C. for 10 minutes, briefly centrifuged, and transfer to the bench top. Wells A1 and H12 were spiked with 1 μL 500 μM internal standard peptide, and the plates centrifuged at 2000×g for 5 minutes. The method was then run and masses of each individual well recorded.
The masses (for which integration data is desired) for each well were pasted into the platemap and exported from the analysis. Masses for the internal standards were exported as well. The data at 50 ppm was extracted for the +19 charge state, and identity of well A1 was assigned using the internal standard spike and integrated. Peak data was exported as a TOF list and the above steps were repeated individually, for the +20, 21, 22, 23, 24, and 25 charge states.
The masses and peak intensities of KRAS G12C protein species were measured using a Dionex RSLCnano system (Thermo Scientific) connected to a Q Exactive Plus mass spectrometer (Thermo Scientific).
[…] of sample was each loaded onto a Aeris™ 3.6 μm WIDEPORE C4 200 Å, LC Column 50×2.1 mm column maintained at 40° C. at a flow rate of 600 μL/min with 20% Solvent A (0.1% formic acid in H2O) and […] (0.1% formic acid in acetonitrile). The liquid chromatography conditions were 20% solvent B for 1 minute, 20% to 60% solvent B for 1.5 minutes, 60% to 90% solvent for 0.5 minute, 90% solvent B for 0.2 minute, 90% to 20% solvent B for 0.2 minute, and then equilibrated for 1.6 minutes before the following sample injection. The flow rate was maintained at 600 μL/min throughout the sample analysis.
The mass spectrometer was operated in profile mode at a resolution of 17500, 5 microscans, using 50 msec max injection time and an AGC target of 1×10^6, and a full mass range from 800-1850 m/z was recorded. The HCD trapping gas was optimized for maximum sensitivity for intact proteins. […]

How did the Binding % turn out when “1-((2R,5S)-4-(6- chloro-7-(1,6- dimethyl-1H- benzo[d][1,2,3]triazol- 7-yl)-2-(3- (dimethylamino)azetidin- 1-yl)-8- flurooquinazolin-4- yl)-2,5- dimethylpiperazin-1- yl)prop-2-en-1-one [Compound 137]” was run?
The Binding % was “+ (+ indicates binding activity greater than 0% and up to 50%)”.

`C=CC(=O)N1C[C@H](C)N(c2nc(N3CC(N(C)C)C3)nc3c(F)c(-c4c(C)ccc5[nH]nc(N)c45)c(Cl)cc23)C[C@H]1C` (atropisomer, axis not shown) [Compound 35, 1-((2R,5S)-4-((R)-7-(3-amino-5-methyl-1H-indazol-4-yl)-6-chloro-2-(3-(dimethylamino)azetidin-1-yl)-8-fluoroquinazolin-4-yl)-2,5-dimethylpiperazin-1-yl)prop-2-en-1-one] was tested. Which Binding % did it give?
Its Binding % is “+++ (+++ indicates binding activity greater than 80%)”.

Which Binding % does the source give for `C=CC(=O)N1CCN(c2nc(N3CC(N(C)C)C3)nc3c(F)c(-c4c(C)ccc5[nH]nc(N)c45)c(Cl)cc23)CC1` (atropisomer, axis not shown) [Compound 37, (R)-1-(4-(7-(3-amino-5-methyl-1H-indazol-4-yl)-6-chloro-2-(3-(dimethylamino)azetidin-1-yl)-8-fluoroquinazolin-4-yl)piperazin-1-yl)prop-2-en-1-one] here?
Its Binding % is “+++ (+++ indicates binding activity greater than 80%)”.

For `C=CC(=O)N1CCN(c2nc(N3CC(N(C)C)C3)nc3c(F)c(-c4c(C)ccc5[nH]nc(N)c45)c(Cl)cc23)CC1` (atropisomer, axis not shown) [Compound 38, (S)-1-(4-(7-(3-amino-5-methyl-1H-indazol-4-yl)-6-chloro-2-(3-(dimethylamino)azetidin-1-yl)-8-fluoroquinazolin-4-yl)piperazin-1-yl)prop-2-en-1-one], which Binding % is on record?
The Binding % was “+ (+ indicates binding activity greater than 0% and up to 50%)”.

`C=CC(=O)N1C[C@H](C)N(c2nc(OCCN3CCCC3)nc3c(F)c(-c4c(C)ccc5[nH]nc(N)c45)c(Cl)cc23)C[C@H]1C` (atropisomer, axis not shown) [Compound 53, 1-((2R,5S)-4-((S)-7-(3-amino-5-methyl-1H-indazol-4-yl)-6-chloro-8-fluoro-2-(2-(pyrrolidin-1-yl)ethoxy)quinazolin-4-yl)-2,5-dimethylpiperazin-1-yl)prop-2-en-1-one] was tested. Which Binding % did it give?
The Binding % was “+ (+ indicates binding activity greater than 0% and up to 50%)”.

With `C=CC(=O)N1C[C@H](C)N(c2nc(OCCN3CCOCC3)nc3c(F)c(-c4c(C)ccc5[nH]nc(N)c45)c(Cl)cc23)C[C@H]1C` (atropisomer, axis not shown) [Compound 58, 1-((2R,5S)-4-((S)-7-(3-amino-5-methyl-1H-indazol-4-yl)-6-chloro-8-fluoro-2-(2-morpholinoethoxy)quina-zolin-4-yl)-2,5-dimethylpiperazin-1-yl)prop-2-en-1-one] as the molecule, how does the Binding % read?
Its Binding % is “+ (+ indicates binding activity greater than 0% and up to 50%)”.

How did the Binding % turn out when `C=CC(=O)N1C[C@H](C)N(c2nc(OCCN3CCOCC3)nc3c(F)c(-c4c(C)ccc5[nH]nc(N)c45)c(Cl)cc23)C[C@H]1C` (atropisomer, axis not shown) [Compound 59, 1-((2R,5S)-4-((R)-7-(3-amino-5-methyl-1H-indazol-4-yl)-6-chloro-8-fluoro-2-(2-morpholinoethoxy)quina-zolin-4-yl)-2,5-dimethylpiperazin-1-yl)prop-2-en-1-one] was run?
Its Binding % is “+++ (+++ indicates binding activity greater than 80%)”.

For `C=CC(=O)N1C[C@H](C)N(c2nc(OCCN3CCC(F)(F)C3)nc3c(F)c(-c4c(C)ccc5[nH]nc(N)c45)c(Cl)cc23)C[C@H]1C` (atropisomer, axis not shown) [Compound 66, 1-((2R,5S)-4-((S)-7-(3-amino-5-methyl-1H-indazol-4-yl)-6-chloro-2-(2-(3,3-difluoropyrrolidin-1-yl)ethoxy)-8-fluoroquinazolin-4-yl)-2,5-dimethylpiperazin-1-y)prop-2-en-1-one], which Binding % is on record?
Its Binding % is “+ (+ indicates binding activity greater than 0% and up to 50%)”.

With `C=CC(=O)N1C[C@H](C)N(c2nc(OCCN3CCC(F)(F)C3)nc3c(F)c(-c4c(C)ccc5[nH]nc(N)c45)c(Cl)cc23)C[C@H]1C` (atropisomer, axis not shown) [Compound 67, 1-((2R,5S)-4-((R)-7-(3-amino-5-methyl-1H-indazol-4-yl)-6-chloro-2-(2-(3,3-difluoropyrrolidin-1-yl)ethoxy)-8-fluoroquinazolin-4-yl)-2,5-dimethylpiperazin-1-yl)prop-2-en-1-one] as the molecule, how does the Binding % read?
Its Binding % is “+++ (+++ indicates binding activity greater than 80%)”.

For `C=CC(=O)N1C[C@H](C)N(c2nc(N3CC(N(C)C)C3)nc3c(F)c(-c4c(C)ccc5[nH]nc(C6CC6)c45)c(Cl)cc23)C[C@H]1C` (atropisomer, axis not shown) [Compound 75, 1-((2R,5S)-4-((S)-6-chloro-7-(3-cyclopropyl-5-methyl-1H-indazol-4-yl)-2-(3-(dimethylamino)azetidin-1-yl)-8-fluoroquinazolin-4-yl)-2,5-dimethylpiperazin-1-yl)prop-2-en-1-one], which Binding % is on record?
Its Binding % is “+ (+ indicates binding activity greater than 0% and up to 50%)”.

With `C=CC(=O)N1C[C@H](C)N(c2nc(N3CC(N(C)C)C3)nc3c(F)c(-c4c(C)ccc5[nH]nc(C6CC6)c45)c(Cl)cc23)C[C@H]1C` (atropisomer, axis not shown) [Compound 76, 1-((2R,5S)-4-((R)-6-chloro-7-(3-cyclopropyl-5-methyl-1H-indazol-4-yl)-2-(3-(dimethylamino)azetidin-1-yl)-8-fluoroquinazolin-4-yl)-2,5-dimethylpiperazin-1-yl)prop-2-en-1-one] as the molecule, how does the Binding % read?
The Binding % was “+++ (+++ indicates binding activity greater than 80%)”.

For `C=CC(=O)N1C[C@H](C)N(c2nc(OCCN3CC(F)(F)C3)nc3c(F)c(-c4c(C)ccc5[nH]nc(N)c45)c(Cl)cc23)C[C@H]1C` (atropisomer, axis not shown) [Compound 83, 1-((2R,5S)-4-((S)-7-(3-amino-5-methyl-1H-indazol-4-yl)-6-chloro-2-(2-(3,3-difluoroazetidin-1-yl)ethoxy)-8-fluoroquinazolin-4-yl)-2,5-dimethylpiperazin-1-yl)prop-2-en-1-one], which Binding % is on record?
The Binding % was “+ (+ indicates binding activity greater than 0% and up to 50%)”.

Which Binding % does the source give for `C=CC(=O)N1C[C@H](C)N(c2nc(OCCN3CC(F)(F)C3)nc3c(F)c(-c4c(C)ccc5[nH]nc(N)c45)c(Cl)cc23)C[C@H]1C` (atropisomer, axis not shown) [Compound 84, 1-((2R,5S)-4-((R)-7-(3-amino-5-methyl-1H-indazol-4-yl)-6-chloro-2-(2-(3,3-difluoroazetidin-1-yl)ethoxy)-8-fluoroquinazolin-4-yl)-2,5-dimethylpiperazin-1-yl)prop-2-en-1-one] here?
Its Binding % is “+++ (+++ indicates binding activity greater than 80%)”.

How did the Binding % turn out when `C=CC(=O)N1C[C@H](C)N(c2nc(N3CC(N(C)C)C3)nc3c(F)c(-c4c(C)ccc5cnn(C)c45)c(Cl)cc23)C[C@H]1C` (atropisomer, axis not shown) [Compound 87, 1-((2R,5S)-4-((R)-6-chloro-7-(1,6-dimethyl-1H-indazol-7-yl)-2-(3-(dimethylamino)azetidin-1-yl)-8-fluoroquinazolin-4-yl)-2,5-dimethylpiperazin-1-yl)prop-2-en-1-one] was run?
The Binding % was “+++ (+++ indicates binding activity greater than 80%)”.
